Source: patent publication US20040152674A1, “Pharmaceutically active compounds and methods of use thereof” (Trustees of Tufts College, priority 1998, published 2004)

Tests used:
Assay in all cases: MIC by broth dilution method (Table 4)
Type in all cases: cell-based
Set-up in all cases: unit not given here
[1] = test system: E. coli D31m4(pHCM1); details: E. coli D31m4(pHCM1) Tcr; 18 hours
Description: (§1) The minimum inhibitory concentration, the lowest concentration of drug that inhibits bacterial growth at 18 hours at their appropriate temperature, is determined by the broth dilution method using L-broth or Muller-Hinton broth. The Muller-Hinton broth was cation-adjusted accordingly and all bacteriological methods were performed as was described by Waitz, J. A., National Commision for Clinical Laboratory Standards Document M7-A2, vol.10, no. 8, pp.13-20, 2nd edition, Villanova, Pa. (1990). The organisms tested represent gram-positive and gram-negative bacterial species that are susceptible to tetracyclines or are resistant to tetracyclines due to the ability to efflux tetracyclines or which confer resistance by ribosomal protection mechanisms. The clinical strains used are either susceptible to tetracyclines or are resistant to them by either drug efflux or ribosomal protection.

[2] = test system: E. faecalis pMV158; details: E. faecalis pMV158 Tc^r; 18 hours
Description: as §1

[3] = test system: E. coli D31m4; details: E. coli D31m4* Tc^r, lipopolysaccharide-deficient mutant; 18 hours
Description: as §1

[4] = test system: E. faecalis pAM211; details: E. faecalis pAM211 Tc^r; 18 hours
Description: as §1

[5] = test system: E. faecalis ATCC9790; details: E. faecalis Tc^r ATCC9790; 18 hours
Description: as §1

[6] = test system: S. aureus RN450; details: S. aureus RN450 Tc^s; 18 hours
Description: as §1

[7] = test system: S. aureus ATCC12715; details: S. aureus Tc^r ATCC12715; 18 hours
Description: as §1

[8] = test system: S. aureus RN4250; details: S. aureus RN4250 Tc^r; 18 hours
Description: as §1

[9] = test system: S. aureus MRSA5; details: S. aureus MRSA5 Tc^r; 18 hours
Description: as §1

Row | SMILES | Antibacterial activity (minimum inhibitory concentration) [1] | Antibacterial activity (minimum inhibitory concentration) [2] | Antibacterial activity (minimum inhibitory concentration) [3] | Antibacterial activity (minimum inhibitory concentration) [4] | Antibacterial activity (minimum inhibitory concentration) [5] | Antibacterial activity (minimum inhibitory concentration) [6] | Antibacterial activity (minimum inhibitory concentration) [7] | Antibacterial activity (minimum inhibitory concentration) [8] | Antibacterial activity (minimum inhibitory concentration) [9]
1 | CC1c2ccc(C(C)(C)CCCN3CCCC3)c(O)c2C(=O)C2=C(O)[C@]3(O)C(=O)C(C(N)=O)=C(O)[C@@H](N(C)C)C3C(O)C21 (stereo partly drawn) [K, [4S-(4alpha,12a-alpha)]-9-[4′-(1′-pyrrolidinyl-4′-methyl)pentyl]-4-(dimethylamino)-1,4,4a,5,5a,6,11,12a-octahydro-3,5,10,12,12a-pentahydroxy-6-methyl-1,11-dioxo-2-naphthacenecarboxamide] | 50 | 25 | 50 | 25 | 25 | 25 | 50 | 50 | 6.25
2 | CC1c2ccc(C(C)(C)CCCBr)c(O)c2C(=O)C2=C(O)[C@]3(O)C(=O)C(C(N)=O)=C(O)[C@@H](N(C)C)C3C(O)C21 (stereo partly drawn) [I, [4S-(4alpha,12aalpha)]-9-[4′-(1′-bromo-4′-methyl)pentyl]-4-(dimethylamino)-1,4,4a,5,5a,6,11,12a-octahydro-3,5,10,12,12a-pentahydroxy-6-methyl-1,11-dioxo-2-naphthacenecarboxamide] | 1.56 | 0.08 | 1.56 | 0.78 | 0.39 | 0.39 | 0.78 | 0.08 | 0.39
3 | CC1c2ccc(C(C)(C)CCC[N+](=O)[O-])c(O)c2C(=O)C2=C(O)[C@]3(O)C(=O)C(C(N)=O)=C(O)[C@@H](N(C)C)C3C(O)C21 (stereo partly drawn) [M, [4S-(4alpha,12a-alpha)]-9-[4′-(1′-nitro-4′-methyl)pentyl]-4-(dimethylamino)-1,4,4a,5,5a,6,11,12a-octahydro-3,5,10,12,12a-pentahydroxy-6-methyl-1,11-dioxo-2-naphthacenecarboxamide] |  | 0.78 | 12.5 | 0.78 | 0.78 | 3.12 | 1.56 | 0.78 | 0.78
4 | CC1c2ccc(C(C)(C)C)c(O)c2C(=O)C2=C(O)[C@]3(O)C(=O)C(C(N)=O)=C(O)[C@@H](N(C)C)C3C(O)C21 (stereo partly drawn) [A, [4S-(4alpha,12aalpha)]-9-(tert-butyl)-4-(dimethylamino)-1,4,4a,5,5a,6,11,12a-octahydro-3,5,10,12,12a-pentahydroxy-6-methyl-1,11-dioxo-2-naphthacenecarboxamide] |  |  |  |  | 1.56 | 0.78 | 3.12 | 1.56 | 3.12
5 | CC1c2ccc(C3(C)CCCCC3)c(O)c2C(=O)C2=C(O)[C@]3(O)C(=O)C(C(N)=O)=C(O)[C@@H](N(C)C)C3C(O)C21 (stereo partly drawn) [E, [4S-(4alpha,12aalpha)]-9-[1′-(1′-methyl)cyclohexyl]-4-(dimethylamino)-1,4,4a,5,5a,6,11,12a-octahydro-3,5,10,12,12a-pentahydroxy-6-methyl-1,11-dioxo-2-naphthacenecarboxamide] | 25 |  | 25 |  | 0.39 | 1.56 | 6.25 | 6.25 | 6.25
6 | CC1c2ccc(C(C)(C)C)c(O)c2C(=O)C2=C(O)[C@]3(O)C(=O)C(C(N)=O)=C(O)[C@@H](N(C)C)C3C(OC(=O)C3CCC3)C21 (stereo partly drawn) [D, [4S-(4alpha,12aalpha)]-9-(tert-butyl)-4-(dimethylamino)-5-cyclobutylcarbonyloxy-1,4,4a,5,5a,6,11,12a-octahydro-3,10,12,12a-tetrahydroxy-6-methyl-1,11-dioxo-2-naphthacenecarboxamide] | 50 | 50 | 50 |  | 0.78 | 0.78 | 3.12 | 3.12 | 1.56
7 | CC1c2ccc(C3(C)CCC3)c(O)c2C(=O)C2=C(O)[C@]3(O)C(=O)C(C(N)=O)=C(O)[C@@H](N(C)C)C3C(O)C21 (stereo partly drawn) [G, [4S-(4alpha,12aalpha)]-9-[1′-(1′-methyl)cyclobutyl]-4-(dimethylamino)-1,4,4a,5,5a,6,11,12a-octahydro-3,5,10,12,12a-pentahydroxy-6-methyl-1,11-dioxo-2-naphthacenecarboxamide] | 6.25 |  | 6.25 |  | 0.78 | 1.56 | 3.12 | 3.12 | 0.08
8 | CC1c2ccc(C3(C)CCCC3)c(O)c2C(=O)C2=C(O)C3(O)C(=O)C(C(N)=O)=C(O)C(N(C)C)C3C(O)C21 (stereo not drawn) [F, [4S-(4alpha,12aalpha)]-9-[1′-(1′-methyl)cyclopentyl]-4-(dimethylamino)-1,4,4a,5,5a,6,11,12a-octahydro-3,5,10,12,12a-pentahydroxy-6-methyl-1,11-dioxo-2-naphthacenecarboxamide] | 1.56 | 0.08 | 0.78 | 0.39 | 0.78 | 0.39 | 0.78 | 0.39 | 0.08
9 | CCC(=O)OC1C2C(=C(O)C3(O)C(=O)C(C(N)=O)=C(O)C(N(C)C)C13)C(=O)c1c(ccc(C(C)(C)C)c1O)C2C (stereo not drawn) [B, [4S-(4alpha,12aalpha)]-9-(tert-butyl)-4-(dimethylamino)-5-propionylcarbonyloxy-1,4,4a,5,5a,6,11,12a-octahydro-3,10,12,12a-tetrahydroxy-6-methyl-1,11-dioxo-2-naphthacenecarboxamide] | 6.25 | 0.39 | 6.25 | 0.78 | 1.56 | 0.39 | 1.56 | 0.78 | 3.12
10 | CC1c2ccc(C(C)(C)CCCC#N)c(O)c2C(=O)C2=C(O)C3(O)C(=O)C(C(N)=O)=C(O)C(N(C)C)C3C(O)C21 (stereo not drawn) [L, [4S-(4alpha,12aalpha)]-9-[4′-(1′-cyano-4′-methyl)pentyl]-4-(dimethylamino)-1,4,4a,5,5a,6,11,12a-octahydro-3,5,10,12,12a-pentahydroxy-6-methyl-1,11-dioxo-2-naphthacenecarboxamide] |  |  |  |  | 3.12 | 1.56 | 6.25 | 3.12 | 6.25
11 | CC1c2ccc(C(C)(C)CCCN(C)C)c(O)c2C(=O)C2=C(O)[C@]3(O)C(=O)C(C(N)=O)=C(O)[C@@H](N(C)C)C3C(O)C21 (stereo partly drawn) [J, [4S-(4alpha,12aalpha)]-9-[4′-(1′-dimethylamino-4′-methyl)pentyl]-4-(dimethylamino)-1,4,4a,5,5a,6,11,12a-octahydro-3,5,10,12,12a-pentahydroxy-6-methyl-1,11-dioxo-2-naphthacenecarboxamide] | 50 | 50 | 50 | 50 | 50 | 50 | 50 | 50 | 50
